From patent publication US20220387466A1, “COMPOUNDS AND PHARMACEUTICAL COMPOSITIONS FOR PREVENTION AND/OR TREATMENT OF DYSBIOSIS AND ANTIBACTERIAL ANTIDOTES FOR MICROBIOME-PROTECTION” (priority 2019, published 2022)
Counter-ions that a name gives are not always drawn.

Experiments:
B. vulgatus [1] = test: Prestwick library screen for microbiome-protective antibiotic antagonists (growth AUC z-scores); format: cell-based, Bacteroides vulgatus; settings: Doxycycline 0.08 μM + 20 μM drug, z-score of normalized growth AUC, two replicates
B. vulgatus [2] = test: Validation of microbiome-protective antagonists (concentration-dependent growth rescue); format: cell-based, Bacteroides vulgatus; settings: Doxycycline 0.078 μM constant, antagonist gradient, normalized AUC >0.25 = growth rescue
Method: (§1) Validation of microbiome-protective antagonists: In a first step, the inventors kept the erythromycin/doxycycline concentration constant (0.625 μM for erythromycin, 0.078 μM (B. vulgates)/0.039 μM (B. uniformis) for doxycycline) and tested concentration gradients of the potential antagonists with ranges depending on the antagonist's solubility. Compounds were purchased from independent vendors and dissolved at 100× starting concentration in DMSO. Eight 2-fold serial dilutions were prepared in 96-well plates with each row containing a different antagonist, sufficient control DMSO wells and wells with just the respective antibiotic (‘antibiotic-only’ control). These master plates were diluted in MGAM medium (50 μl) to 2×assay concentration and 25 μl freshly prepared antibiotic solution (4× test concentration) was added. Plates were pre-reduced overnight in an anaerobic chamber and inoculated with 25 μl of overnight cultures (prepared as described under “Growth conditions”) to reach a starting OD578 of 0.01 and 1% DMSO concentration. Growth was monitored hourly for 24 h after 30 sec of linear shaking. Experiments were performed in biological triplicates. For analysis, growth curves were converted into normalized AUCs (see above). The inventors accounted for residual growth in the presence of the antibiotic by subtracting the median normalized AUCs of the ‘antibiotic-only’ control per plate.

B. uniformis [3] = test: Prestwick library screen for microbiome-protective antibiotic antagonists (growth AUC z-scores); format: cell-based, Bacteroides uniformis; settings: z-score of normalized growth AUC, two replicates
From the text: The inventors reasoned that it should be possible to identify drugs that selectively antagonize the effect of antibiotics on gut microbes, while retaining activity against pathogens. Therefore, the inventors screened the Prestwick library to identify antagonizing compounds to erythromycin or doxycycline on two abundant and prevalent gut microbes, B. vulgatus and B. uniformis.
Preparation of screening plates. The Prestwick Chemical Library was purchased from Prestwick Chemical Inc. and drugs were re-arrayed, diluted and stored in 96 well format as described before. The inventors prepared drug plates (2×drug concentration) in MGAM medium and stored them at −30° C. For each experiment, drug plates were thawed, supplemented with the respective antibiotic solution (freshly prepared in MGAM) and pre-reduced in the anaerobic chamber overnight. All rearranging and aliquoting steps were done using the Biomek FXP (Beckman Coulter) system.
Inoculation and screening conditions. Strains were grown twice overnight, the second overnight culture was diluted in MGAM to reach OD578 nm 0.04 (4×the desired starting OD). 25 μl of the diluted cultures were used to inoculate wells containing 50 μl of 2× concentrated Prestwick drug and 25 μl of the 4× concentrated antibiotic using the semi-automated, 96-well multi-channel pipette epMotion 96 (Eppendorf). Each well contained 1% DMSO, 20 μM of the Prestwick drug and a species-specific antibiotic concentration that was just inhibitory for the respective strain (0.625 μM for erythromycin, 0.04 μM doxycycline for B. uniformis and 0.08 μM doxycycline for B. vulgatus). Plates were sealed with breathable membranes (Breathe-Easy®) and OD578 was measured hourly after 30 sec of linear shaking with a microplate spectrophotometer (EON, Biotek) and an automated microplate stacker (Biostack 4, Biotek) fitted inside a custom-made incubator (EMBL Mechanical Workshop). Growth curves were collected up to 24 h. For each antibiotic, each species was screen in biological duplicates. All experiments included control wells of unperturbed growth (32 wells per run) and control wells for growth in the presence of the antibiotic only (8 wells per plate).
Analysis pipeline and hit calling: All growth curves within a plate were truncated at the transition time from exponential to stationary phase and converted to normalized AUCs using in-run control wells (no drug) as described before. The inventors then calculated z-scores based on these normalized AUCs, removed replicates with 8-fold differences in z-scores to eliminate noise effects, computed mean z scores across the two replicates and selected combinations with mean z-scores >3. This selection included 19 potential antibiotic antagonists and the inventors followed up on 14 of them (7 potential erythromycin and 7 potential doxycycline antagonists in either B. vulgatus or B. uniformis—see FIG. 4) in independent experiments.

B. uniformis [4] = test: Validation of microbiome-protective antagonists (concentration-dependent growth rescue); format: cell-based, Bacteroides uniformis; settings: antagonist gradient, normalized AUC >0.25 = growth rescue
Method: as §1

B. vulgatus [5] = test: 8x8 checkerboard assay for anaerobic commensals (antibiotic vs antagonist); format: cell-based, Bacteroides vulgatus
From the text: Checkerboard assays for anaerobic commensals: Validated antagonists were further investigated in 8×8 checkerboard assays, where both antibiotics and antagonists were titrated against each other. Such assays were first performed for the commensals that were originally screened (i. e. B. vulgatus and B. uniformis—4 replicates) and later expanded towards 6 further gut microbes (B. caccae, B. fragilis NT, B. ovatus, B. thetaiotaomicron, P. copri, P. distasonis—2 replicates). For vertical gradients, 2-fold serial dilutions of the antagonists were prepared first in 100× in DMSO and diluted in MGAM as described above (section ‘Validation of microbiome-protective antagonists’). Horizontal antibiotic dilution series were freshly prepared in MGAM at 4× final concentration in equidistant concentration steps. Both, vertical and horizontal dilution series were combined (50 μl of the antagonist gradients (2×) and 25 μl of the antibiotic gradients (4×)) in 96 well plates. Plates were pre-reduced under anaerobic conditions overnight, inoculated with 25 μl of diluted overnight culture (at 4× starting OD) and sealed with breathable membrane (Breathe-Easy®). Bacterial growth was monitored once per hour for 24 hours after 30 sec linear shaking (Eon+Biostack 4, Biotek) under anaerobic conditions. Growth curves were converted into normalized AUCs as described using in-plate controls to define unperturbed growth.

[6] = test system: species of the order Bacteroidales; test: Antidote vs azithromycin across seven gut Bacteroidales (Example 4); format: cell-based; settings: combination with azithromycin
Method: The antidotes dicumarol (first column), benzbromarone (second column) and tolfenamic acid (third column) were tested for their efficacy in antagonizing the macrolide antibiotic azithromycin across seven prevalent and abundant gut Bacteroidales (B. vulgatus, B. fragilis NT, B. thetaiotaomicron, P. copri, B. caccae, B. ovatus, P. distasonis). […] All drug concentrations are in μM.
In particular, they aimed at testing, whether these antidotes can also protect from other macrolides such as azithromycin, a clinically more relevant antibiotic.

[7] = test system: synthetic gut commensal community of seven human gut commensals; test: Synthetic gut commensal community growth with macrolide and antidote (Example 5); format: cell-based; settings: erythromycin and azithromycin
From the text: Heat maps depict area under the growth curve (AUC) of a synthetic community consisting of seven human gut commensals. Shown is the median AUC of three individual replicates. All drug concentrations are in μM.
So far, antidote effects have only been analyzed in single or pure cultures. However, the human gut microbiome is a complex community of many different bacterial taxa that is usually not adequately mimicked in monocultures.

E. faecalis [8] = test: Antidote with macrolide on enterococci (Example 6); format: cell-based, Enterococcus faecalis
From the text: Heat maps show median area under the growth curve (AUC) of three biologically independent replicates. […] All drug concentrations are in μM.
Here, the inventors expanded testing towards additional antidotes, and included the intestinal human pathogen Enterococcus faecalis.

E. faecium = test: Antidote with macrolide on enterococci (Example 6); format: cell-based
[9] = test system: seven-member synthetic community including the pathogen E. faecalis; test: E. faecalis-containing synthetic community, community growth AUC (Example 7); format: cell-based
From the text: (§2) Heat maps show median area under the growth curve (AUC) of the seven-member synthetic community including the pathogen E. faecalis. The numbers within the heat map represent the total number of all E. faecalis viable cells for each erythromycin-antidote combination as determined by enumerating of E. faecalis colony forming units after plating on selective medium. All drug concentrations are in μM. n. d.=not detectable.
(§3) The inventors exposed synthetic communities that contained the intestinal gut pathogen E. faecalis to erythromycin, and evaluated rescue of gut commensals and simultaneous killing of the pathogen in the presence of antidotes.

E. faecalis [10] = test: E. faecalis-containing synthetic community, E. faecalis CFU on selective medium (Example 7); format: cell-based, Enterococcus faecalis
From the text: as §2, §3

[11] = Erythromycin 0.625 μM + 20 μM drug
[12] = erythromycin 1.15 μM + 40 μM dicumarol or 20 μM benzbromarone
[13] = Doxycycline 0.04 μM + 20 μM drug

For `CCC(Cc1c(I)cc(I)c(N)c1I)C(=O)O` (stereo not shown) [Iopanoic acid], the Mean z-score (B. vulgatus [1]) was 5.698 and the Validation (B. vulgatus [2]) was “TRUE”.
For `CCc1oc2ccccc2c1C(=O)c1cc(Br)c(O)c(Br)c1` [Benzbromarone], the Mean z-score (B. uniformis [3]; [11]) was 6.034, the Validation (B. uniformis [4]; Erythromycin 0.625 μM constant) was “FALSE” and the “rescue of B. vulgatus growth from erythromycin” value (B. vulgatus [5]; combination with erythromycin) was “can rescue the growth”. For the same compound, the “protection of Bacteroidales species from azithromycin” value [6] was “can be Protected”, the “protection (growth rescue) of synthetic gut commensal community from macrolide antibiotics” value [7] was “can be Protected” and the “interaction with antibacterial effects of erythromycin/azithromycin” value (E. faecalis [8]) was “synergized”. The “rescue from erythromycin or azithromycin treatment” value (E. faecalis [8]) was “Neither dicumarol nor benzbromarone or tolfenamic acid could rescue”, the “interaction with antibacterial effects of erythromycin/azithromycin” value (E. faecium) was “synergized” and the “rescue from erythromycin or azithromycin treatment” value (E. faecium) was “Neither dicumarol nor benzbromarone or tolfenamic acid could rescue”. For the same compound, the “community growth (AUC)” value [9, 12] was “the community is rescued”, the “rescue of the community despite erythromycin treatment” value ([9]; erythromycin + antidote) was “rescue of the community” and the E. faecalis counts (E. faecalis [10]; [12]) was “drop/are still found at below the detection limit”. The “E. faecalis cells in community under erythromycin + antidote” value (E. faecalis [10]; erythromycin + antidote) was “efficiently inhibited”.
Work on `Cc1ccc(-c2cc(C(F)(F)F)nn2-c2ccc(S(N)(=O)=O)cc2)cc1` [Celecoxib] yielded a Mean z-score (B. uniformis [3]; [13]) of 3.275.
`N#CC(c1ccc(Cl)cc1)c1c(Cl)cc(-n2ncc(=O)[nH]c2=O)cc1Cl` (stereo not shown) [Diclazuril] gave a Mean z-score (B. vulgatus [1]) of 3.117.
With `CC[C@H](c1ccc(O)cc1)[C@@H](CC)c1ccc(O)cc1` [Hexestrol] the Mean z-score (B. uniformis [3]; [11]) was 9.630 and the Validation (B. uniformis [4]; Erythromycin 0.625 μM constant) was “TRUE”.
In the case of `CCCCCN(CCCCC)C(=O)C(CCC(=O)O)NC(=O)c1ccc(Cl)c(Cl)c1` (stereo not shown) [Lorglumide sodium salt], the Mean z-score (B. uniformis [3]; [11]) is reported as 6.106 and the Validation (B. uniformis [4]; Erythromycin 0.625 μM constant) is reported as “TRUE”.
`O=C1Nc2ccc(Cl)cc2[C@@](C#CC2CC2)(C(F)(F)F)O1` [Efavirenz] gave a Mean z-score (B. vulgatus [1]) of 3.138.
In the case of `Oc1cc(Cl)ccc1Oc1ccc(Cl)cc1Cl` [Triclosan], the Mean z-score (B. uniformis [3]; [13]) is reported as 3.066 and the Validation (B. uniformis [4]; Doxycycline 0.039 μM constant) is reported as “FALSE”.
In the case of `CC/C(=C(/CC)c1ccc(O)cc1)c1ccc(O)cc1` [Diethylstilbestrol], the Mean z-score (B. vulgatus [1]) is reported as 3.296, the Mean z-score (B. uniformis [3]; [11]) is reported as 9.258 and the Validation (B. uniformis [4]; Erythromycin 0.625 μM constant) is reported as “TRUE”.
For `CC(C)c1c(CN(C)C(C)Cc2ccccc2)n(C)n(-c2ccccc2)c1=O` (stereo not shown) [Famprofazone], the Mean z-score (B. uniformis [3]; [11]) was 7.832 and the Validation (B. uniformis [4]; Erythromycin 0.625 μM constant) was “FALSE”.
For `CCCCc1nc(Cl)c(CO)n1Cc1ccc(-c2ccccc2-c2nn[nH]n2)cc1` [Losartan], the Mean z-score (B. uniformis [3]; [13]) was 3.421 and the Validation (B. uniformis [4]; Doxycycline 0.039 μM constant) was “FALSE”.
Work on `Cc1ccc(Cl)c(Nc2ccccc2C(=O)O)c1Cl` [Meclofenamic acid sodium salt monohydrate] yielded a Mean z-score (B. vulgatus [1]) of 3.010.
With `O=C(O)c1cc(-c2ccc(F)cc2F)ccc1O` [Diflunisal] the Mean z-score (B. vulgatus [1]) was 3.265, the Validation (B. vulgatus [2]) was “TRUE” and the “rescue of B. vulgatus growth from doxycycline” value (B. vulgatus [5]; combination with doxycycline) was “rescued”.
`O=C(O)Cc1cc(I)c(Oc2ccc(O)c(I)c2)c(I)c1` [3,3′,5-triiodothyroacetic acid] was tested, and the Mean z-score (B. uniformis [3]; [13]) was 4.333 and the Validation (B. uniformis [4]; Doxycycline 0.039 μM constant) was “TRUE”.
